Reference: patent US10604484B2, “Indolone compounds and their use as AMPA receptor modulators” (Janssen Pharmaceutica NV, priority 2015, dated 2020)

Target: T1, GluA1o-γ8 (Homo sapiens, UniProt P42261+Q8WXS5)
T1 construct: expressed in transfected cells
Test: Calcium flux assay (FLIPR), inhibition of glutamate response of GluA1o-γ8 channel in HEK293 cells
Format: cell-based
Conditions: HEK293 cells stably expressing GRIA1o-CACNG8 fusion, 15 μM glutamate, pIC50 = negative log of the IC50 in molar; for IC50: read-out: GluR1-γ8 pIC50 (converted)
Source text: This assay was used to test compounds for their ability to inhibit TARP γ8 dependent AMPA receptor activity. The AMPA receptor is a non-selective cation channel activated by glutamate. Ionotropic glutamate receptors normally desensitize too rapidly to allow detectable calcium influx in a FLIPR assay (Strange et al. (2006). “Functional characterisation of homomeric ionotropic glutamate receptors GluR1-GluR6 in a fluorescence-based high throughput screening assay.” Comb Chem High Throughput Screen 9(2): 147-158). But, this desensitization is incomplete, and a substantial steady-state current remains in the sustained presence of glutamate (Cho et al. (2007). “Two families of TARP isoforms that have distinct effects on the kinetic properties of AMPA receptors and synaptic currents.” Neuron 55(6): 890-904).
An in vitro assay was used to determine the potency of test compounds as inhibitors of the glutamate response of the channel formed by GluA1o-γ8. To ensure a 1:1 stoichiometry of GluA1o and γ8 subunits in the expressed channel, a fusion of the cDNAs for GRIA1o and CACNG8 was used. Following Shi et al (2009) “The stoichiometry of AMPA receptors and TARPs varies by neuronal cell type.” Neuron 62(5): 633-640), the C-terminus of the cDNA for GRIA1o was fused to the N-terminus of the cDNA for γ8. The linker sequence was QQQQQQQQQQEFAT. Channels expressed with this construct appear to have similar properties to channels formed by co-expression of GRIA1o with an excess of CACNG8 (Shi et al. 2009). A clonal cell line in HEK293 cells stably expressing this construct, with a geneticin selection marker, was generated for use in this assay. Cell expressing the GRIA1o-CACNG8 fusion construct were grown in a monolayer in 96- or 384-well microtiter plates. They were washed with assay buffer (135 mM NaCl, 4 mM KCl, 3 mM CaCl2, 1 mM MgCl2, 5 mM glucose, 10 mM HEPES, pH 7.4, 300 mOs) using a Biotek EL405 plate washer. The cells were then loaded with a calcium-sensitive dye (Calcium-5 or Calcium-6, Molecular Devices) and the test compounds at a range of concentrations. Calcium flux following the addition of 15 μM glutamate was monitored using a Molecular Devices FLIPR Tetra.
The fluorescence in each well was normalized to the fluorescence of negative and positive control wells. The negative control wells had no added compounds, and the positive control wells had been incubated with 10 μM CP465022 (a non-subtype-selective AMPA receptor antagonist) (Lazzaro et al. (2002). “Functional characterization of CP-465,022, a selective, noncompetitive AMPA receptor antagonist.” Neuropharmacology 42(2): 143-153). The responses to glutamate as functions of the test compound concentrations were fitted to a four-parameter logistic function. The fitted parameter corresponding to the midpoint was taken to be the potency of inhibition of the compound. The data in Table 4 below illustrates the observed potentcy for the compounds described herein. pIC50 refers to the negative log of the IC50 in molar.

T1 sequence (P42261+Q8WXS5 fused): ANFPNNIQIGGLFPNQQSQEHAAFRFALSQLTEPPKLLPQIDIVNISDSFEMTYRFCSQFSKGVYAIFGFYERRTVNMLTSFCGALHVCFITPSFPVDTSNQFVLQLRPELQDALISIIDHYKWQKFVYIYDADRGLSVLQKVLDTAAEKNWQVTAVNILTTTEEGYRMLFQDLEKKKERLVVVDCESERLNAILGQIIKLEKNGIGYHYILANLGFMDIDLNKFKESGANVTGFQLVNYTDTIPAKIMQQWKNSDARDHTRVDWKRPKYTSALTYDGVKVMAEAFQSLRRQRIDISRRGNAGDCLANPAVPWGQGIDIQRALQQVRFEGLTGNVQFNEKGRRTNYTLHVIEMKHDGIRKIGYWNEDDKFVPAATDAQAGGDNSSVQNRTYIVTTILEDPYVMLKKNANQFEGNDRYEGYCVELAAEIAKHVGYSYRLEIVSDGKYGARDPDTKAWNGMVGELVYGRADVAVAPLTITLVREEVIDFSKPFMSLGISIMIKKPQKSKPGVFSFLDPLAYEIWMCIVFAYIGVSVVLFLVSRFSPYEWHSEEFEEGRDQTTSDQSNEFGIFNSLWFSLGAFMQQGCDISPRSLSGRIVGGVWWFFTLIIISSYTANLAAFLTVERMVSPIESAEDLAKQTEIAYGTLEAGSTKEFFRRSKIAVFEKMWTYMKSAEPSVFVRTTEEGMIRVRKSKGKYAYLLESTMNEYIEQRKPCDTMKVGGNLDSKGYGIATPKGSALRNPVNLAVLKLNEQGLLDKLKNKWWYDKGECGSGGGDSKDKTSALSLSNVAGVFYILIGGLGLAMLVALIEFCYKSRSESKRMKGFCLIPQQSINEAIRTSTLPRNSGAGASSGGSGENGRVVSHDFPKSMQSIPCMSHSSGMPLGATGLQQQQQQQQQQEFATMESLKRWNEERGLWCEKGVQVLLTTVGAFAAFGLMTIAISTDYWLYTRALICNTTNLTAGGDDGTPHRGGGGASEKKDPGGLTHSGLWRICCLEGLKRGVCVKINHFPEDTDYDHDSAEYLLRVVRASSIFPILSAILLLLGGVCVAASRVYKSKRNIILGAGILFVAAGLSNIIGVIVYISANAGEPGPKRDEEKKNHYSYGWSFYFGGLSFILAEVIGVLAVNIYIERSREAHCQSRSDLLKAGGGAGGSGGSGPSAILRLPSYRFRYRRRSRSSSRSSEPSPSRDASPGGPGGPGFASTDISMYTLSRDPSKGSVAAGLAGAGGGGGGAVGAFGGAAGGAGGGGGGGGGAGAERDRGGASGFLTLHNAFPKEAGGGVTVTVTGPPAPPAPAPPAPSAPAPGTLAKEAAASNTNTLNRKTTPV

IC50 | SMILES | GluR1-γ8 pIC50
– | Cc1cc(-c2c(Cl)cncc2OC(F)F)cc2c1NC(=O)C2 [Example 146, 5-(3-Chloro-5-(difluoromethoxy)pyridin-4-yl)-7-methylindolin-2-one] | 8.1
0.501 nM | O=C1Cc2cc(-c3c(Cl)cccc3OC(F)(F)F)cc(C(F)(F)F)c2N1 [Example 176, 5-[2-Chloro-6-(trifluoromethoxy)phenyl]-7-(trifluoromethyl)indolin-2-one] | –
15.8 nM | O=C1Cc2cc(-c3c(Cl)cccc3OC(F)F)cc(F)c2N1 [Example 118, 5-(2-Chloro-6-(difluoromethoxy)phenyl)-7-fluoroindolin-2-one] | –
7.94 nM | O=C1Cc2cc(-c3c(Cl)cncc3Cl)cc(Cl)c2N1 [Example 159, 7-Chloro-5-(3,5-dichloro-4-pyridyl)indolin-2-one] | –
1.58 nM | O=C1Cc2cc(-c3c(Cl)ccnc3Cl)cc(Cl)c2N1 [Example 163, 7-Chloro-5-(2,4-dichloro-3-pyridyl)indolin-2-one] | –
31.6 nM | COc1nccc(C)c1-c1cc(C)c2c(c1)CC(=O)N2 [Example 150, 5-(2-Methoxy-4-methyl-3-pyridyl)-7-methyl-indolin-2-one] | –
25.1 nM | CC(C)(C#N)c1cccc(Cl)c1-c1cc(F)c2c(c1)CC(=O)N2 [Example 119, 2-(3-Chloro-2-(7-fluoro-2-oxoindolin-5-yl)phenyl)-2-methylpropanenitrile] | –
0.794 nM | COc1cc(-c2c(Cl)cccc2OC(F)(F)F)cc2c1NC(=O)C2 [Example 178, 5-[2-Chloro-6-(trifluoromethoxy)phenyl]-7-methoxy-indolin-2-one] | –
12.6 nM | Cc1cc(-c2c(Cl)cnc(C(F)(F)F)c2Cl)cc2c1NC(=O)C2 [Example 144, 5-(3,5-Dichloro-2-(trifluoromethyl)pyridin-4-yl)-7-methylindolin-2-one] | –
1.26 nM | Cc1cc(-c2c(C)cccc2C(F)(F)F)cc2c1NC(=O)C2 [Example 137, 7-Methyl-5-[2-methyl-6-(trifluoromethyl)phenyl]indolin-2-one] | –
5.01 nM | Cc1cc(-c2c(Cl)cccc2C#N)cc2c1NC(=O)C2 [Example 143, 3-Chloro-2-(7-methyl-2-oxoindolin-5-yl)benzonitrile] | –
31.6 nM | N#CCc1cccc(Cl)c1-c1ccc2c(c1)CC(=O)N2 [Example 6, 2-[3-Chloro-2-(2-oxoindolin-5-yl)phenyl]acetonitrile] | –
251 nM | Cc1cncc(C)c1-c1cc(F)c2c(c1)CC(=O)N2 [Example 125, 5-(3,5-Dimethyl-4-pyridyl)-7-fluoro-indolin-2-one] | –
2.51 nM | Cc1cc(-c2c(C)cccc2C)cc2c1NC(=O)C2 [Example 142, 5-(2,6-Dimethylphenyl)-7-methyl-indolin-2-one] | –
126 nM | COc1cccc(F)c1-c1cc(C)c2c(c1)CC(=O)N2 [Example 139, 5-(2-Fluoro-6-methoxy-phenyl)-7-methyl-indolin-2-one] | –
0.316 nM | Cc1cccc(C(F)(F)F)c1-c1cc(Cl)c2c(c1)CC(=O)N2 [Example 167, 7-Chloro-5-[2-methyl-6-(trifluoromethyl)phenyl]indolin-2-one] | –

IC50 | SMILES | GluR1-γ8 pIC50
12.6 nM | N#Cc1ccc(OC(F)(F)F)c(-c2cc(F)c3c(c2)CC(=O)N3)c1Cl [Example 124, 2-Chloro-3-(7-fluoro-2-oxo-indolin-5-yl)-4-(trifluoromethoxy)benzonitrile] | –
0.316 nM | O=C1Cc2cc(-c3c(Cl)cccc3OC(F)F)cc(Cl)c2N1 [Example 154, 7-Chloro-5-[2-chloro-6-(difluoromethoxy)phenyl]indolin-2-one] | –
6.31 nM | Cc1ccnc(Cl)c1-c1cc(Cl)c2c(c1)CC(=O)N2 [Example 160, 7-Chloro-5-(2-chloro-4-methyl-3-pyridyl)indolin-2-one] | –
0.251 nM | CCc1cc(-c2c(C)cccc2Cl)cc2c1NC(=O)C2 [Example 170, 5-(2-Chloro-6-methyl-phenyl)-7-ethyl-indolin-2-one] | –
100 nM | Cc1cc(-c2cccc(C#N)c2C)cc2c1NC(=O)C2 [Example 134, 2-Methyl-3-(7-methyl-2-oxo-indolin-5-yl)benzonitrile] | –
3.16 nM | Cc1cc(-c2c(C)cccc2F)cc2c1NC(=O)C2 [Example 136, 5-(2-Fluoro-6-methyl-phenyl)-7-methyl-indolin-2-one] | –
0.0631 nM | Cc1cccc(Cl)c1-c1cc(Cl)c2c(c1)CC(=O)N2 [Example 165, 7-Chloro-5-(2-chloro-6-methyl-phenyl)indolin-2-one] | –
6.31 nM | O=C1Cc2cc(-c3c(Cl)cncc3OC(F)(F)F)cc(Cl)c2N1 [Example 157, 7-Chloro-5-(3-chloro-5-(trifluoromethoxy)pyridin-4-yl)indolin-2-one] | –
316 nM | O=C1Cc2cc(-c3c(Cl)cncc3Cl)cc(F)c2N1 [Example 126, 5-(3,5-Dichloro-4-pyridyl)-7-fluoro-indolin-2-one] | –
– | O=C1Cc2cc(-c3c(Cl)cccc3OC(F)(F)F)ccc2N1 [Example 5, 5-[2-Chloro-6-(trifluoromethoxy)phenyl]indolin-2-one] | 7.8
1.58 nM | Cc1cccc(C#N)c1-c1cc(Cl)c2c(c1)CC(=O)N2 [Example 164, 2-(7-Chloro-2-oxo-indolin-5-yl)-3-methyl-benzonitrile] | –
7.94 nM | COc1nccc(C)c1-c1cc(Cl)c2c(c1)CC(=O)N2 [Example 162, 7-Chloro-5-(2-methoxy-4-methyl-3-pyridyl)indolin-2-one] | –
3.16 nM | CCc1cc(-c2c(C)cccc2C#N)cc2c1NC(=O)C2 [Example 169, 2-(7-Ethyl-2-oxo-indolin-5-yl)-3-methyl-benzonitrile] | –
> 10000 nM | COc1cccc(OC(F)F)c1-c1cc(F)c2c(c1)CC(=O)N2 [Example 123, 5-[2-(Difluoromethoxy)-6-methoxy-phenyl]-7-fluoro-indolin-2-one] | –
25.1 nM | O=C1Cc2cc(-c3c(Cl)cccc3Br)ccc2N1 [Example 2, 5-(2-Bromo-6-chlorophenyl)indolin-2-one] | –
15.8 nM | CCc1cc(-c2c(C)cncc2C)cc2c1NC(=O)C2 [Example 173, 5-(3,5-Dimethyl-4-pyridyl)-7-ethyl-indolin-2-one] | –
